Results reported in US20080260896A1 (priority 2007, published 2008).
Read-outs that look alike come from different tables or passages of the source. Marks after values point to notes of the source that are not given here.

Experiments:
[1] = Methanol concentration of stored crude glycerin; type: physicochemical; conditions: stored in sealed totes approximately 5 months, analyzed in duplicate; certificate of analysis 800 ppm
Source text: (§1) A subset of ten cattle (5 from each treatment) were used for baseline and withdrawal sampling of rumen fluid and blood plasma for residual methanol quantification. […] Withdrawal samples were collected from the same subset of animals.

[2] = Crude glycerin in finishing cattle diets: carcass merit; type: in vivo, Angus-cross steers; conditions: for Adjusted Carcass Live Wt / Backfat Depth / Choice 0 / Choice - / Dress / Hot Carcass Weight / KPH Fat / Live Weight / Marbling Score / Ribeye Area / YG 2 / YG 3 / YG 4 / Yield Grade / Carcass Value: 10% DM glycerin; for Carcass Value: calculated from carcass weight, premiums and discounts
Description: All cattle were adapted on a common 4-step transition prior to initiation of the evaluation. Cattle were blocked by weight (4 blocks) with four pens per treatment (9-10 head/pen). […] Individual weights were collected at 28-day intervals throughout with steers terminated on three harvest dates (days on feed 116 to 153 days) based on weight and condition. Six monthly periods and cumulative (d 1-116 and 1-153) periods were analyzed. […] Carcass value was calculated using actual carcass weight and associated premiums and discounts for quality and yield grades.

[3] = Gross energy of crude glycerin sample; type: physicochemical; conditions: test crude glycerin sample with 14.8% moisture
[4] = Crude glycerin as an energy source in swine nursery diets; type: in vivo; conditions: nursery pigs
Description: In yet another embodiment, crude glycerin was evaluated as an energy source in swine nursery diets. A total of 165 pigs (Monsanto Choice Genetics, EB x GP37; initial weight: 7.14 kg) were used to determine the effect of […] on performance of nursery pigs. Pigs were blocked by initial weight to one of five dietary treatments with seven pens per treatment and four or five pigs per pen. […] The basal diets were close to a typical corn-SBM diet with no animal fat added. […] Dietary protein, lysine (amino acid ratios), major minerals, and vitamins were equal across treatments within each phase. […] Dietary lysine levels were high enough to […] to observe energy effect. Feeding programs of Momentum grind-mix option (15-25, 25-35 and 35-50 lbs. BW) was the base program. The trial had four phases with 7, 7, 7, and 9 days, respectively. Before the pigs started the trial, the pigs were fed a common diet until the pigs weighed about 15.5 pounds. Medication choice for diets in this embodiment was Carbadox. The assumed ME value for crude glycerin was based on preliminary research data from Europe. […] Feed efficiency data was regressed against daily ME intake to estimate ME content for crude glycerin. […] The crude glycerin's energy value should be similar to or lower than corn.

[5] = Glycerin as feed ingredient for lactating dairy cattle; type: in vivo, lactating Holstein cows; conditions: for Estimated Net Energy for Lactation (of the entire diet): calculated from energy output in milk and body weight increase
Description: In another embodiment, an evaluation was conducted to assess practical energy value of using glycerin as a feed ingredient for lactating dairy cattle. […] Diets were balanced to meet energy requirements based on the control diet, be isonitrogenous, and balanced to meet or exceed requirements for all other nutrients. The basal ration contained corn silage, alfalfa haylage, hay, high-moisture corn, vitamins, and minerals, and was formulated to contain about 17% CP, 6.5% RUP, and 10.5 RDP (DM basis).

[6] = male, crossbred, cattle, in vivo
Source text: as §1

[7] = Lactating Holstein cows fed heat stress product with and without glycerin; type: in vivo; conditions: heat stress product + 454 g/d glycerin
Source text: Forty-eight lactating Holstein cows (twelve per treatment) were used in a randomized complete block design to determine the effect of feed additives on production efficiency. […] Treatments 2 and 4 will be the focus of this example. Diets were corn silage based and formulated to be iso-nitrogenous. Cows were housed in a free-stall barn with access to individual stalls. Training for Calan door use was initiated in mid-May, the standardization period occurred in early June and the treatment period started in late June and continued through early August. Feed was mixed and delivered once daily and fed behind electronic Calan doors, allowing individual intake to be determined. Ad libitum intakes were adjusted to achieve orts of 7-10% daily. Cows were milked twice daily at 0400 and 1500. Feed intake, milk yield and composition, body temperature, and body weight changes were monitored.

[8] = DDGS:Soy Hulls 10:0 diet (Treatment 2)
[9] = DDGS:Soy Hulls 30:15 diet (Treatment 4)

Which “methanol concentration of crude glycerin samples” value [1] does the source give for `OCC(O)CO` [crude glycerin, glycerin] here?
Its value is 756 ppm.

And the “Adjusted Carcass Live Wt” value [2, 8]?
The value was 567.9^a kg.

And the “Backfat Depth” value [2, 8]?
The value was 1.40 cm.

And the “Choice 0” value [2, 8]?
The value was 66.7%.

And the Choice - [2, 8]?
The Choice - was 94.4%.

And the Dress [2, 8]?
The Dress was 61.59%.

What about the “Hot Carcass Weight” value [2, 8] of the same compound?
The value was 357.7^a kg.

And the “KPH Fat” value [2, 8]?
The value was 1.90%.

And the “Live Weight” value [2, 8]?
Its value is 581.0^a kg.

And the “Marbling Score” value [2, 8]?
The value was 623.1.

And the “Ribeye Area” value [2, 8]?
Its value is 85.49 sq cm.

What about the “YG 2” value [2, 8] of the same compound?
Its value is 44.4%.

And the “YG 3” value [2, 8]?
Its value is 55.6%.

And the “YG 4” value [2, 8]?
The value was 0.0%.

And the “Yield Grade” value [2, 8]?
Its value is 3.01.

What about the “Carcass Value” [2, 8] of the same compound?
The value was 1038.6^a.

And the “Adjusted Carcass Live Wt” value [2, 9]?
The value was 551.4^ab kg.

And the “Backfat Depth” value [2, 9]?
Its value is 1.48 cm.

What about the “Choice 0” value [2, 9] of the same compound?
The value was 65.0%.

And the Choice - [2, 9]?
The Choice - was 95.0%.

And the Dress [2, 9]?
Its Dress is 61.65%.

What about the “Hot Carcass Weight” value [2, 9] of the same compound?
Its value is 347.4^ab kg.

What about the “KPH Fat” value [2, 9] of the same compound?
The value was 1.87%.

What about the “Live Weight” value [2, 9] of the same compound?
The value was 563.3^ab kg.

What about the “Marbling Score” value [2, 9] of the same compound?
Its value is 630.1.

And the “Ribeye Area” value [2, 9]?
Its value is 84.86 sq cm.

And the “YG 2” value [2, 9]?
Its value is 45.0%.

What about the “YG 3” value [2, 9] of the same compound?
Its value is 55.0%.

And the “YG 4” value [2, 9]?
Its value is 0.0%.

And the “Yield Grade” value [2, 9]?
The value was 3.07.

And the “Carcass Value” [2, 9]?
The value was 1008.5^ab.

What about the “Adjusted Carcass Live Wt” value ([2]; main effect over both diets) of the same compound?
Its value is 559.6 kg.

What about the “Backfat Depth” value ([2]; main effect over both diets) of the same compound?
Its value is 1.44 cm.

What about the “Choice 0” value ([2]; main effect over both diets) of the same compound?
Its value is 65.8%.

What about the Choice - ([2]; main effect over both diets) of the same compound?
Its Choice - is 94.7%.

And the Dress ([2]; main effect over both diets)?
The Dress was 61.62%.

And the “Hot Carcass Weight” value ([2]; main effect over both diets)?
The value was 352.6 kg.

And the “KPH Fat” value ([2]; main effect over both diets)?
Its value is 1.88%.

What about the “Live Weight” value ([2]; main effect over both diets) of the same compound?
Its value is 572.2 kg.

What about the “Marbling Score” value ([2]; main effect over both diets) of the same compound?
The value was 626.6.

And the “Ribeye Area” value ([2]; main effect over both diets)?
Its value is 85.18 sq cm.

What about the “YG 2” value ([2]; main effect over both diets) of the same compound?
The value was 44.7%.

What about the “YG 3” value ([2]; main effect over both diets) of the same compound?
Its value is 55.3%.

What about the “YG 4” value ([2]; main effect over both diets) of the same compound?
The value was 0.0%.

What about the “Yield Grade” value ([2]; main effect over both diets) of the same compound?
Its value is 3.04.

And the “Carcass Value” ([2]; main effect over both diets)?
Its value is 1023.5.

What about the “final and hot carcass weight, ribeye area, carcass value versus control” value ([2]; steers fed 10% crude glycerin) of the same compound?
The value was “tended (P<0.10) to have greater final and hot carcass weight, ribeye area, and resulting carcass value”.

And the Gross energy [3]?
The Gross energy was 3845 kcal/kg.

What about the daily gain ([4]; phase 4, increasing dietary crude glycerin) of the same compound?
Its daily gain is “decreased in phase 4 in a linear and quadratic manner”.

What about the Feed intake ([4]; phases 2, 3, 4 and cumulative phases 1-2, 1-3, 1-4, increasing dietary crude glycerin) of the same compound?
Its Feed intake is “linearly increased”.

And the daily gain ([4]; up to 12% crude glycerin)?
The daily gain was “did not affect daily gain”.

And the “Body Weight change” value ([5]; 5% glycerin fed (DM basis))?
Its value is 89.6^ab lbs.

What about the “Body condition score change” value ([5]; 5% glycerin fed (DM basis)) of the same compound?
The value was 0.1.

And the Feed intake ([5]; 5% glycerin fed (DM basis))?
Its Feed intake is 53.9 lb/day.

What about the Milk production ([5]; 5% glycerin fed (DM basis)) of the same compound?
Its Milk production is 81.2 lb/day.

And the “Milk urea Nitrogen” value ([5]; 5% glycerin fed (DM basis))?
Its value is 10.9^b mg/dl.

What about the “Somatic Cell Count” value ([5]; 5% glycerin fed (DM basis)) of the same compound?
Its value is 490 1000 cells/ml.

And the “Estimated Net Energy for Lactation (of the entire diet)” value (“Estimated Net Energy for Lactation” below) ([5]; 5% glycerin fed (DM basis))?
Its value is 1.55 mcal/kg.

And the “Body Weight change” value ([5]; 10% glycerin fed (DM basis))?
Its value is 109.3^b lbs.

And the “Body condition score change” value ([5]; 10% glycerin fed (DM basis))?
Its value is 0.1.

And the Feed intake ([5]; 10% glycerin fed (DM basis))?
Its Feed intake is 54.1 lb/day.

What about the Milk production ([5]; 10% glycerin fed (DM basis)) of the same compound?
Its Milk production is 82.1 lb/day.

What about the “Milk urea Nitrogen” value ([5]; 10% glycerin fed (DM basis)) of the same compound?
The value was 10.7^b mg/dl.

And the “Somatic Cell Count” value ([5]; 10% glycerin fed (DM basis))?
Its value is 137 1000 cells/ml.

What about the “Estimated Net Energy for Lactation” value ([5]; 10% glycerin fed (DM basis)) of the same compound?
Its value is 1.57 mcal/kg.

And the “Body Weight change” value ([5]; 15% glycerin fed (DM basis))?
Its value is 113.5^b lbs.

And the “Body condition score change” value ([5]; 15% glycerin fed (DM basis))?
Its value is 0.1.

What about the Feed intake ([5]; 15% glycerin fed (DM basis)) of the same compound?
The Feed intake was 53.0 lb/day.

What about the Milk production ([5]; 15% glycerin fed (DM basis)) of the same compound?
The Milk production was 80.0 lb/day.

And the “Milk urea Nitrogen” value ([5]; 15% glycerin fed (DM basis))?
Its value is 10.2^b mg/dl.

And the “Somatic Cell Count” value ([5]; 15% glycerin fed (DM basis))?
The value was 144 1000 cells/ml.

And the “Estimated Net Energy for Lactation” value ([5]; 15% glycerin fed (DM basis))?
The value was 1.58 mcal/kg.

What about the “animals with measurable methanol in rumen fluid” value [6] of the same compound?
The value was 50%.

What about the “animals with measurable methanol in rumen fluid” value ([6]; 16 day) of the same compound?
The value was 100%.

And the “methanol in rumen fluid” value ([6]; 16 day)?
Its value is no more than 23.77 ppm.

What about the “NE Balance” value [7] of the same compound?
The value was 6.15 mcal/day.

And the NE intake [7]?
Its NE intake is 38.74 mcal/day.

And the NE milk [7]?
Its NE milk is 27.07 mcal/day.

And the Body Weight change ([7]; 56 days)?
Its Body Weight change is “greater”.

And the Milk fat ([7]; 56 days)?
The Milk fat was 3.90%.

And the “Milk fat, milk protein, and energy corrected milk yield” value ([7]; 56 days)?
Its value is “tended greater”.

And the Milk production ([7]; 56 days)?
The Milk production was “not affected by treatment group”.

What about the Milk protein ([7]; 56 days) of the same compound?
The Milk protein was 2.93%.

And the “Retained net energy for lactation and/or body weight gain” value ([7]; 56 days)?
The value was “significantly greater”.

And the Milk ([7]; 56 days, all cows)?
Its Milk is 38.53 kg/day.

And the DMI ([7]; 56 days, listed as Glycerin)?
The DMI was 23.49 kg/day.

What about the DMI ([7]; 56 days, listed as glycerin) of the same compound?
The DMI was “not different among treatment groups”.

And the “Milk, Multiparous” value ([7]; multiparous cows)?
Its value is 36.63 kg/day.

And the “Milk, Primiparous” value ([7]; primiparous cows)?
The value was 40.42 kg/day.

And the “ECM (energy corrected milk)” value ([7]; (.3246 × kg milk) + (12.86 × kg fat) + (7.04 × kg protein))?
Its value is 39.40 kg/day.

What about the BW change ([7]; difference in body weights using a weekly rolling average) of the same compound?
Its BW change is 0.779 kg/day.
